# In patent US9427482B2, “Agents for clearing biomolecules from circulation” (KONINKLIJKE PHILIPS N.V., priority 2010, dated 2016):
# Assays:
# LS174T xenografts = test: Biodistribution of ^125I-CC49-TCO 18 and ^177Lu-tetrazine 15 with one or two doses of 12 (Example 9); assay type: in vivo, mice
# Protocol: LS174T tumor model. The human colon cancer cell line LS174T was obtained from the ATCC and maintained in Eagle's minimal essential medium (Sigma) supplemented with 10% heat inactivated fetal calf serum (Gibco), penicillin (100 U/mL), streptomycin (100 μg/mL) and […] Glutamax. Nude female Balb/C mice (20-25 g body weight, Charles River Laboratories) were inoculated subcutaneously with 5×10^6 cells in 100 μL sterile PBS.
# Nude female mice (n=4) bearing LS174T xenografts (0.29±0.16 g) were injected ^125I-CC49-TCO 18 (t=0, 100 μg/100 μl per mouse) followed by one 160 μg/100 μl dose of galactose-MSA-tetrazine (12) 30 hours post mAb injection, or two 160 μg/100 μl 12 doses 30 and 48 hours post mAb injection. Two hours after the last clearing agent dose the mice were administered 8.52 μg of ^177Lu-labeled tetrazine 15 (10 equiv. with respect to mAb) and were sacrificed 3 hours post tetrazine injection. Blood was withdrawn by heart puncture and selected organs and tissues were harvested and blotted dry. The blood samples and tissues were weighed, added with 1 mL PBS and the radioactivity was counted in a gamma counter along with standards to determine the % ID/g. The differences between columns were analyzed using the two-tailed unpaired t-test (Graphpad Prism v. 5.01)
# tumor = test: Dual isotope biodistribution, mice pretargeted with CC49-TCO 20 (Example 10); assay type: in vivo; conditions: two doses of 12; 3 h after ^177Lu-tetrazine 15
# Protocol: Tumor-bearing mice (ca. 100 mm^3 tumor size; n=4) were injected with ^125I-CC49 functionalized with 7.5 TCO-20 groups (100 μg/mouse, ca. 0.2 MBq). Thirty and 48 hours post-mAb injection the mice received one dose of clearing agent (galactose-MSA-tetrazine, 160 μg/dose) followed 2 h later by ^177Lu-tetrazine 15 (10 eq. with respect to the mAb, ca. 0.5 MBq). Three hours post-tetrazine injection the mice were anesthetized and sacrificed by cervical dislocation, blood was withdrawn by heart puncture, organs and tissues of interest were harvested and blotted dry. All collected samples were weighed and added with 1 mL PBS. The sample radioactivity was measured in a gamma-counter with a dual-isotope protocol (10-80 keV window for ^125I and 155-380 keV window for ^177Lu) along with standards to determine the percent injected dose per gram tissue (% ID/g).
# [1] = Organ residence times from mouse biodistribution data (MIRD)
# Protocol: Radiation dosimetry estimates were calculated for a male human model (standard 73 Kg adult) and for a voxelized mouse model by using the mouse biodistribution data (Example 12, Tables 7 and 8) according to the MIRD methodology. Activity concentration in these organs were converted in percent injected dose (% ID) and decay corrected to the time of injection. The % ID for blood, muscle and bone were estimated from the % ID/g of tissue and assuming 6%, 42% and 11% of the body weight. Whenever possible the time activity curves were fitted by a two-phase exponential clearance function. The fitted function was then integrated analytically to yield the organ residence times (Table 9). […] The time activity curve of the tumor was fitted by a mono-exponential uptake function defined as F(t)=a0(1−exp(−a1t)).
# For ^177Lu-DOTA-CC49 some radioactivity was collected in the mixture of urine and feces. […] For the pretargeted ^177Lu-tetrazine a total of 97.8% ID was excreted.
# [2] = Two doses of 12, 30 and 48 h post mAb
compound,measurement,setting,value
O=C([O-])CN1CCN(CC(=O)[O-])CCN(CC(=O)NCCOCCOCCOCCOCCOCCOCCOCCOCCOCCOCCOCCNC(=O)CCCC(=O)Nc2ccc(-c3nnc(-c4ccccn4)nn3)nc2)CCN(CC(=O)[O-])CC1.[177Lu+3] [^177Lu-tetrazine],^177Lu-tetrazine T/blood,"LS174T xenografts; One dose of 12, 30 h post mAb",45.9±14.2
same,^177Lu-tetrazine T/bone,"LS174T xenografts; One dose of 12, 30 h post mAb",136.1 ± 68.7
same,^177Lu-tetrazine T/brain,"LS174T xenografts; One dose of 12, 30 h post mAb",935.9 ± 297.1
same,^177Lu-tetrazine T/heart,"LS174T xenografts; One dose of 12, 30 h post mAb",64.7 ± 18.0
same,^177Lu-tetrazine T/kidney,"LS174T xenografts; One dose of 12, 30 h post mAb",7.9 ± 3.3
same,^177Lu-tetrazine T/liver,"LS174T xenografts; One dose of 12, 30 h post mAb",32.4 ± 6.3
same,^177Lu-tetrazine T/lung,"LS174T xenografts; One dose of 12, 30 h post mAb",28.1 ± 11.8
same,^177Lu-tetrazine T/muscle,"LS174T xenografts; One dose of 12, 30 h post mAb",128.5 ± 83.7
same,^177Lu-tetrazine T/spleen,"LS174T xenografts; One dose of 12, 30 h post mAb",50.5 ± 10.9
same,^177Lu-tetrazine in blood,"LS174T xenografts; One dose of 12, 30 h post mAb",0.17 ± 0.06 % ID/g
same,^177Lu-tetrazine in bone,"LS174T xenografts; One dose of 12, 30 h post mAb",0.06 ± 0.03 % ID/g
same,^177Lu-tetrazine in brain,"LS174T xenografts; One dose of 12, 30 h post mAb",0.01 ± 0.00 % ID/g
same,^177Lu-tetrazine in heart,"LS174T xenografts; One dose of 12, 30 h post mAb",0.12 ± 0.03 % ID/g
same,^177Lu-tetrazine in kidney,"LS174T xenografts; One dose of 12, 30 h post mAb",1.06 ± 0.39 % ID/g
same,^177Lu-tetrazine in liver,"LS174T xenografts; One dose of 12, 30 h post mAb",0.23 ± 0.00 % ID/g
same,^177Lu-tetrazine in lung,"LS174T xenografts; One dose of 12, 30 h post mAb",0.28 ± 0.05 % ID/g
same,^177Lu-tetrazine in muscle,"LS174T xenografts; One dose of 12, 30 h post mAb",0.08 ± 0.04 % ID/g
same,^177Lu-tetrazine in spleen,"LS174T xenografts; One dose of 12, 30 h post mAb",0.15 ± 0.03 % ID/g
same,^177Lu-tetrazine in tumor,"LS174T xenografts; One dose of 12, 30 h post mAb",7.48 ± 1.46 % ID/g
same,^177Lu-tetrazine T/bone,LS174T xenografts; [2],123.3 ± 80.3
same,^177Lu-tetrazine T/brain,LS174T xenografts; [2],1146.7 ± 122.9
same,^177Lu-tetrazine T/heart,LS174T xenografts; [2],142.4 ± 18.5
same,^177Lu-tetrazine T/kidney,LS174T xenografts; [2],3.4 ± 0.4
same,^177Lu-tetrazine T/liver,LS174T xenografts; [2],30.8 ± 2.9
same,^177Lu-tetrazine T/lung,LS174T xenografts; [2],26.2 ± 3.9
same,^177Lu-tetrazine T/muscle,LS174T xenografts; [2],140.9 ± 67.1
same,^177Lu-tetrazine T/spleen,LS174T xenografts; [2],63.7 ± 9.2
same,^177Lu-tetrazine in blood,LS174T xenografts; [2],0.03 ± 0.00 % ID/g
same,^177Lu-tetrazine in bone,LS174T xenografts; [2],0.08 ± 0.08 % ID/g
same,^177Lu-tetrazine in brain,LS174T xenografts; [2],0.00 ± 0.00 % ID/g
same,^177Lu-tetrazine in heart,LS174T xenografts; [2],0.04 ± 0.00 % ID/g
same,^177Lu-tetrazine in kidney,LS174T xenografts; [2],1.58 ± 0.14 % ID/g
same,^177Lu-tetrazine in liver,LS174T xenografts; [2],0.18 ± 0.02 % ID/g
same,^177Lu-tetrazine in lung,LS174T xenografts; [2],0.21 ± 0.03 % ID/g
same,^177Lu-tetrazine in muscle,LS174T xenografts; [2],0.05 ± 0.03 % ID/g
same,^177Lu-tetrazine in spleen,LS174T xenografts; [2],0.09 ± 0.01 % ID/g
same,^177Lu-tetrazine in tumor,LS174T xenografts; [2],5.38 ± 0.48 % ID/g
same,^177Lu-tetrazine Blood,tumor,0.03 ± 0.00 % ID/gram
same,^177Lu-tetrazine Bone,tumor,0.08 ± 0.04 % ID/gram
same,^177Lu-tetrazine Brain,tumor,0.01 ± 0.00 % ID/gram
same,^177Lu-tetrazine Heart,tumor,0.05 ± 0.01 % ID/gram
same,^177Lu-tetrazine Kidney,tumor,1.50 ± 0.24 % ID/gram
same,^177Lu-tetrazine Liver,tumor,0.19 ± 0.02 % ID/gram
same,^177Lu-tetrazine Lung,tumor,0.24 ± 0.02 % ID/gram
same,^177Lu-tetrazine Muscle,tumor,0.03 ± 0.00 % ID/gram
same,^177Lu-tetrazine Spleen,tumor,0.09 ± 0.01 % ID/gram
same,^177Lu-tetrazine Tumor,tumor,9.25 ± 2.16 % ID/gram
same,^177Lu-tetrazine Tumor/organ Blood,tumor,304 ± 80
same,^177Lu-tetrazine Tumor/organ Bone,tumor,142 ± 59
same,^177Lu-tetrazine Tumor/organ Brain,tumor,1674 ± 243
same,^177Lu-tetrazine Tumor/organ Heart,tumor,187 ± 20
same,^177Lu-tetrazine Tumor/organ Kidney,tumor,6 ± 2
same,^177Lu-tetrazine Tumor/organ Liver,tumor,50 ± 10
same,^177Lu-tetrazine Tumor/organ Lung,tumor,39 ± 8
same,^177Lu-tetrazine Tumor/organ Muscle,tumor,328 ± 96
same,^177Lu-tetrazine Tumor/organ Spleen,tumor,108 ± 22
same,Residence time Bladder Wall,[1],0.009 h
same,Residence time Blood,[1],0.067 h
same,Residence time Bone,[1],0.239 h
same,Residence time Brain,[1],0.001 h
same,Residence time Heart Wall,[1],0.001 h
same,Residence time Kidneys,[1],0.293 h
same,Residence time Large Intestines,[1],0.23 h
same,Residence time Liver,[1],0.302 h
same,Residence time Lungs,[1],0.031 h
same,Residence time Muscle,[1],0.19 h
same,Residence time Ovaries,[1],0.0034 h
same,Residence time Small Intestines,[1],0.082 h
same,Residence time Spleen,[1],0.023 h
same,Residence time Stomach,[1],0.032 h
same,Residence time Tumor,[1],3.93 h
same,Residence time Uterus,[1],0.026 h
same,Residence time remainder of the body,[1],1 h
same,Residence time Red Marrow,[1]; τmarrow=0.08 τblood,0.0054 h
